Like-named read-outs stand apart in the source and are kept apart here.
What was measured:
[1] = 25deg, 0.1M ionic strength; fully deprotonated chelants; cited from earlier work
[2] = 25deg, 0.1M ionic strength; fully deprotonated chelants; cited from earlier work; remark: listed apart in the source
[3] = Hydrogen Peroxide Decomposition Ratio Measurement Protocol; conditions: for Peroxide % at t = 0 / Peroxide % at t = 30mn / Hydrogen Peroxide Decomposition Ratio (% Loss): pH 10, 300 ppm copper sulphate, 0.026M chelant; for Hydrogen Peroxide Decomposition Ratio (% Loss): after 30 minutes
Experimental: The Hydrogen Peroxide Decomposition Ratio Measurement Protocol is defined as follows: 6.0% by weight of concentrated ammonium hydroxide (30% active ammonia) is added to deionised water and the pH of the solution is adjusted to 10 using acetic acid. 300 ppm of copper sulphate and 0.026M of the chelant to be tested are added to said composition. […] The initial level of hydrogen peroxide is measured at this moment (t=0); the final level of hydrogen peroxide is measured after 30 minutes. The value of the ratio of the hydrogen peroxide concentration at t=0 and at t=30 mn is the Hydrogen Peroxide Decomposition Ratio (% Loss).
The initial and final level of hydrogen peroxide can be measured according to any standard technique. The following is a well-known and standard technique that was used by the inventors: 0.2-0.3 g (the exact quantity being precisely measured) of the solution to be titrated is added to 40 ml of 10% acetic acid. […] The level of hydrogen peroxide (% Peroxide) is then calculated from the following equation: [formula]
Three replicate runs are made at both t=0 and t=30 mn and then averaged to calculate the Hydrogen Peroxide Decomposition Ratio (% Loss).

[4] = FT-IR Damage Assessing Protocol after 5-Cycle Oxidative Hair Treatment Protocol With 2 Intermediate Washes; set-up: species or system human; conditions: for Damage after 5 cycles (cysteic acid units): 2 intermediate washes, pH 10
Experimental: For each chelant tested, seven switches of virgin dark hair were used. […] The switches usually weighed about 1.5 g each and are treated stepwise according to the following protocol.
A bleaching composition comprising the chelant to be tested is prepared by mixing in equal weight amounts a hydrogen peroxide emulsion base and an alkaline (high pH) emulsion base.
2 g Of the bleaching composition per g of hair to be treated was applied on the hair switches and massaged in thoroughly. The hair switches were then wrapped in a plastic film and put in an oven at 30° C. After 30 mn, they were removed from the oven and from the wrapping film and rinsed for 1 mn in water. 0.1 g of shampoo per g. of hair was then added and milked for 30 s at a rate of at least 150 strokes a minute before rinsing for 30 s. […] The concentration of copper (Cu^2+) ions was kept at about 1 ppm (+/−10%), the exact concentrations being measured by a standard analytic method. The rinsing water flow was adjusted to 6 liters per minute). The same shampooing and rinsing process was repeated another time (this is the “Oxidative Hair Treatment Protocol With 2 Intermediate Washes” referred to in the claims) or 9 additional times (this is the “Oxidative Hair Treatment Protocol With 10 Intermediate Washes” referred to in the claims) depending on the Damage Assessment Protocol used. The excess water was then squeezed out of the hair, and the hair dried with a fan. Any standard shampoo can be used in this protocol as long as it is free from transition metal ions such as copper ion and that the level chelants is less than 0.1% by weight of the shampoo. Prell® shampoo was using during these tests.
This Oxidative Hair Treatment Protocol can be repeated several times. […] This process is described as a 5-Cycle Oxidative Hair Treatment Protocol With 2 or 10 Intermediate Washes.
In particular, these authors have shown that the method is suitable for quantifying the amount of cysteic acid that is produced from the oxidation of cystine. In general, the oxidation of cystine is thought to be a suitable marker by which to monitor the overall oxidation of the keratinous part of the fiber.
They have shown that this technique is more suitable than using the FT-IR method in simple transmission or microscope modes. […] The detailed description of the method used for testing the different damage inhibitors follows thereafter:
A Perkin Elmer Spectrum® 1 Fourier Transform Infrared (FTIR) system equipped with a diamond Attenuated Total Internal Reflection (ATR) cell was used to measure the cysteic acid concentration in human hair. In this method, hair switches of various sizes and colours can be used. The switches were platted (˜1 plait per cm) in order to minimize variations in surface area of contact between readings. The Oxidative Hair Treatment Protocol described above was repeated for 5 cycles to mimic the behavior of hair after repeated bleaching cycles. Following this treatment, four readings per switch were taken (˜⅓ and ⅔ s down the switch on both sides), and an average calculated. Backgrounds were collected every 4 readings, and an ATR cell pressure of 1N/m was employed. The cell was cleaned with ethanol between each reading, and a contamination check performed using the monitor ratio mode of the instrument. […] The original spectra were initially converted to absorbance, before being normalized to the 1450 cm^−1 band (the characteristic and invariant protein CH2 stretch). This normalized absorbance was then twice derivatised using a 13 point averaging. The value of the 1450 cm^−1 normalized 2nd derivative of the absorbance at 1040 cm^−1 was taken as the relative concentration of cysteic acid. This figure was multiplied by −1×10^−4 to recast it into suitable units. […] The following instrumental conditions were employed:
The weight percentages for each chelant are indicated in the first line of the table below.

[5] = log Conditional Stability Constant at pH 10 with Cu; conditions: for Ratio Cu/Ca of log Conditional Stability Constants: log KCuL / log KCaL
[6] = tetra-protonated chelants; cited from earlier work
[7] = log Conditional Stability Constant at pH 10 with Ca
[8] = Goniophotometer Damage Assessing Protocol after Oxidative Hair Treatment Protocol With 10 Intermediate Washes; set-up: species or system human
Experimental: A bleaching composition comprising the chelant to be tested is prepared by mixing in equal weight amounts a hydrogen peroxide emulsion base and an alkaline (high pH) emulsion base. 2 g Of the bleaching composition per g of hair to be treated was applied on the hair switches and massaged in thoroughly. The hair switches were then wrapped in a plastic film and put in an oven at 30° C. […] The rinsing water flow was adjusted to 6 liters per minute). […] The excess water was then squeezed out of the hair, and the hair dried with a fan. […] Prell® shampoo was using during these tests. This Oxidative Hair Treatment Protocol can be repeated several times.

[9] = not given; remark: listed apart in the source
[10] = 2.0% weight on-head (tetra-sodium EDTA, di-sodium HEDP), 5 cycles
[11] = 1.9% weight on-head, tri-sodium salt, 5 cycles
[12] = 3.8% weight on-head, tetra-sodium salt, 5 cycles

Row | SMILES | log Conditional Stability Constant (pH 10) Cu [5] | log Conditional Stability Constant (pH 10) Ca [7] | Ratio Cu/Ca of log Conditional Stability Constants [5] | log K (stability constant, 1:1 complex) Cu [1] | log K (stability constant, 1:1 complex) Ca [2] | Peroxide % at t = 0 [3] [%] | Peroxide % at t = 30mn [3] [%] | Damage after 5 cycles (cysteic acid units) [4, 10] [cysteic acid units] | log protonation constant H2L^2− [6] | log protonation constant H3L^− [6] | log protonation constant H4L [6] | log protonation constant HL^3− [6] | Hydrogen Peroxide Decomposition Ratio (% Loss) [3] [%] | also measured
1 | O=P(O)(O)CN(CCN(CP(=O)(O)O)CP(=O)(O)O)CCN(CP(=O)(O)O)CP(=O)(O)O [DTPMP, diethylene-triamine-penta-(methylenephosphonic acid)] | – | – | – | – | – | 3.078 | 2.964 | – | – | – | – | – | – | Damage benefit vs EDTA 2% [4, 12]: +14%; Damage after 5 cycles (cysteic acid units) [4, 12]: 142 cysteic acid units; log Conditional Stability Constant (pH 10) Ca: 4.74; log Conditional Stability Constant (pH 10) Cu [9]: 15.14
2 | O=C(O)CC(NCC(O)CNC(CC(=O)O)C(=O)O)C(=O)O (stereo not drawn) [HPPDS, 2-hydroxypropylenediamine-N,N′-disuccinic acid] | – | – | – | – | – | – | – | – | – | – | – | – | – | Normalized shine ratio (hair treated after 9 cycles/ virgin hair) ([8]; 0.97 weight %, tetra-sodium salt): 1.00
3 | CC(C(=O)O)N(CC(=O)O)CC(=O)O (stereo not drawn) [MGDA, methylglycinediacetic acid] | – | – | – | – | – | 3.498 | 3.104 | – | – | – | – | – | 11.3 | –

The next lines start with results.

Row | log Conditional Stability Constant (pH 10) Cu [5] | log Conditional Stability Constant (pH 10) Ca [7] | Ratio Cu/Ca of log Conditional Stability Constants [5] | SMILES | log K (stability constant, 1:1 complex) Cu [1] | log K (stability constant, 1:1 complex) Ca [2] | Peroxide % at t = 0 [3] [%] | Peroxide % at t = 30mn [3] [%] | Damage after 5 cycles (cysteic acid units) [4, 10] [cysteic acid units] | log protonation constant H2L^2− [6] | log protonation constant H3L^− [6] | log protonation constant H4L [6] | log protonation constant HL^3− [6] | Hydrogen Peroxide Decomposition Ratio (% Loss) [3] [%] | also measured
4 | 16.37 | – | – | O=C(O)CN(CCN(CC(=O)O)CC(=O)O)CC(=O)O [EDTA, ethylenediaminetetraacetic acid] | 18.78 | 10.65 | 3.576 | 3.573 | 165 | – | – | – | – | – | Capacity at inhibiting the red-ox chemistry of copper (in words) ([3]; lab condition, de-ionized water): very good capacity; Damage prevention properties (in words) ([4]; real conditions of use, high copper and Ca^2+ concentrations): very poor damage prevention properties; Damage benefit (in words) ([4]; unless utilized at levels much higher than 0.1%): very little benefits
5 | 16.04 | 4.27 | 3.76 | O=C(O)CC(NCCNC(CC(=O)O)C(=O)O)C(=O)O (stereo not drawn) [EDDS, ethylenediamine-N,N′-disuccinic acid] | 18.35 | 4.58 | 3.150 | 3.104 | – | 6.84 | 3.86 | 2.95 | 10.01 | 1.5 | Hair damage compared with any other chelant (in words) ([4]; 1.9% by weight, 5 cycles): much less damage; Damage benefit vs EDTA 2% [4, 11]: +33%; Damage after 5 cycles (cysteic acid units) [4, 11]: 110 cysteic acid units; Damage benefit (in words) ([4]; concentrations much lower than 1.9% by weight on head): excellent benefits; Normalized shine ratio (hair treated after 9 cycles/ virgin hair) ([8]; 0.95 weight %, tri-sodium salt): 1.03
6 | 8.98 | 5.13 | 1.75 | CC(O)(P(=O)(O)O)P(=O)(O)O [HEDP, 1-hydroxyethane-1,1-diphosphonic acid] | 11.84 | 6.0 | 4.126 | 2.792 | 163 | 6.88 | 2.53 | 1.8 | 10.8 | 32.3 | Damage benefit vs EDTA 2% ([4]; 2.0% weight on-head, di-sodium salt, 5 cycles): +1%; Normalized shine ratio (hair treated after 9 cycles/ virgin hair) ([8]; 1.0 weight % (tetra-sodium EDTA, di-sodium HEDP)): 0.730
